Biological target: T1, 14-3-3γ/ERRγ complex (Homo sapiens, UniProt P61981+P62508)
T1 construct: made in house; host or cells: E. coli NiCo21 (DE3)
Test: Intact mass spectrometry (QTOF-MS) crosslinking of 14-3-3γ and ERRγ
Assay type: biochemical
Conditions: 14-3-3γ 5 μM; for consumption of apo-14-3-3γ into crosslinked ternary complex: ERRγ 25 μM, compound 50 μM, NaCNBH3 reduction, 4 h
Procedure: To further confirm the covalent crosslinking in solution, we performed intact mass spectrometry (MS) on the 14-3-3γ/ERRγ/5 and the 14-3-3γ/ERRγ/10 protein complexes. To ensure detection of the acid-labile imine-bonded complexes, the covalent imine bond was reduced in situ to the corresponding secondary amine using sodium cyanoborohydride. Samples were incrementally taken over 4 h and analyzed with high-resolution MS to determine crosslinking of the 14-3-3γ/ERRγ complex (Figure 2f–h and Figures S8 and S9). Intact MS analysis confirmed time-dependent crosslinking of the ternary complex (14-3-3γ/ERRγ/lock). […] A similar result was also observed for 10 (calculated mass: 33,080.4 Da) (Figure S11a–c).
Figure S8a. QTOF-MS analysis of 14-3-3/ERRg/5 ternary complex formation. LC-MS analysis of time-dependent crosslinking experiment of 14-3-3γ (5 µM) and ERRγ (25 µM) phosphopeptide by compound 5 (50 µM). Controls of just apo 14-3-3γ protein and protein incubated with compound 5 without ERRγ peptide are added. (Left) Chromatograms obtained for each sample after x amount of incubation. […] Calculated mass 14 -3-3γ […]
Figure S9. […] Based on the determined peak intensity of apo 14-3-3γ (peak A) and 14-3-3γ in complex with ERRg and staple 5 (peak B), the percentage of ternary complex is determined for each time point. […]
Different Scanning Fluorimetry (DSF) assays were performed using 40 µL samples containing 5 µM 14-3-3γ, 50 µM ERRγ pS179 9-mer peptide, 200 µM compound (or 1% DMSO) and 5x ProteoOrange (Lumiprobe, 5000x stock in DMSO) in 10 mM Hepes, 150 mM NaCl, 50 µM TCEP (pH 8.0). […] Fluorescence intensity was determined using excitation 470/40 nm and emission 570/20 nm filters. Based on these melting curves, the negative derivative melting curve is obtained from which the melting temperature Tm was determined. ΔTm values represent the differences in melting temperature relative to the DMSO control. All described melting temperatures are based on three independent experiments from which the average and standard deviations were determined using excel. […]

T1 sequence (P61981 whole entry, other chains not shown): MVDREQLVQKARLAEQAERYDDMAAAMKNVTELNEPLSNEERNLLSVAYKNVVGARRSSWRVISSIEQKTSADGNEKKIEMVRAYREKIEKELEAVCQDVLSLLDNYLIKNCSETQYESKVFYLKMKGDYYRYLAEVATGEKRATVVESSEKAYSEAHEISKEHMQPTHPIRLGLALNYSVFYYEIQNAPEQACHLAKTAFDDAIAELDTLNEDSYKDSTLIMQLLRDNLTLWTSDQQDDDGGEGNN

| SMILES | consumption of apo-14-3-3γ into crosslinked ternary complex | crosslinking of 14-3-3/ERRγ in isolation (only ERRγ phosphopeptide 10 μM, 5 50 μM) [%] |
| --- | --- | --- |
| CN(C)CCSSCCN(C)C(=O)c1ccc(C=O)c(F)c1 [compound 5] | near quantitative consumption of apo-14-3-3γ | ~70 |
| CN(C)CCSSCCN(C)C(=O)c1cc(Br)cc(C=O)c1 [compound 10] | complete consumption of apo-14-3-3γ was not observed |  |

Source: paper PMC10064330, “Reversible Dual-Covalent Molecular Locking of the 14-3-3/ERRγ Protein–Protein Interaction as a Molecular Glue Drug Discovery Approach” (Journal of the American Chemical Society, 2023)
